In PubChem BioAssay (NCI):
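Values below derive from 48-hour exposures of cells grown in 96-well plates, with endpoints linearly interpolated between the two concentrations bracketing the appropriate inhibition level. TGI: concentration producing complete growth inhibition.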

Tests used:
Assay in all cases: DTP human tumour cell line panel, 48 h
[1] = system: DU-145 prostate
[2] = system: T-47D breast
[3] = system: OVCAR-3 ovarian
[4] = system: HL-60(TB) leukemia
[5] = system: RPMI-8226 leukemia
[6] = system: CCRF-CEM leukemia
[7] = system: SF-295 CNS
[8] = system: A498 renal
[9] = system: MDA-MB-231 breast
[10] = system: NCI-H522 lung

`O=C1O/C(=C\c2ccc(O)cc2)C(c2ccc(O)c(Cl)c2)=C1Br` showed a TGI [1] of 27.6 µM, a TGI [2] of 62.9 µM and a TGI [3] of 21.1 µM. For the same molecule, the TGI [4] was 51.2 µM, the TGI [5] was 30.7 µM and the TGI [6] was 32.8 µM. The TGI [7] was 28.9 µM, the TGI [8] was 34.6 µM and the TGI [9] was 59.9 µM. It also gave a TGI [10] of 20.5 µM.
For `COc1ccccc1OC/C(N=Cc1ccncc1)=N/NC(=O)c1ccncc1`, the TGI [1] was > 100 µM, the TGI [2] was > 100 µM and the TGI [3] was > 100 µM. For the same molecule, the TGI [4] was > 100 µM, the TGI [5] was > 100 µM and the TGI [6] was > 100 µM. The TGI [7] was > 100 µM, the TGI [8] was > 100 µM and the TGI [9] was > 100 µM. The TGI [10] was > 100 µM.
With `O=C(O)c1ccccc1-c1ccccc1C(=O)c1ccccc1` the TGI [1] was > 100 µM, the TGI [2] was > 100 µM and the TGI [3] was > 100 µM. For the same molecule, the TGI [4] was > 100 µM, the TGI [5] was > 100 µM and the TGI [6] was > 100 µM. The TGI [7] was > 100 µM, the TGI [8] was > 100 µM and the TGI [9] was > 100 µM. The TGI [10] was > 100 µM.
In the case of `COC1=CC2(C=CC1=O)CCN=c1c(O)c3c(c(O)c12)=NC=N3` (stereo not given), the TGI [1] is reported as > 100 µM, the TGI [2] is reported as > 100 µM and the TGI [3] is reported as > 100 µM. For the same molecule, the TGI [4] was > 100 µM, the TGI [5] was > 100 µM and the TGI [6] was > 100 µM. The TGI [7] was > 100 µM, the TGI [8] was > 100 µM and the TGI [9] was > 100 µM. For the same molecule, the TGI [10] was > 100 µM.
For `Cc1ccc(C2=Nn3c(nc4sc(-c5ccccc5)cc4c3=O)SC2)cc1`, the TGI [1] was > 100 µM, the TGI [2] was > 100 µM and the TGI [3] was > 100 µM. The TGI [4] was > 100 µM, the TGI [5] was > 100 µM and the TGI [6] was > 100 µM. The TGI [7] was > 100 µM, the TGI [8] was > 100 µM and the TGI [9] was > 100 µM. For the same molecule, the TGI [10] was > 100 µM.
With `C/C(=N\O)c1ccc(Nc2c3ccccc3nc3occc23)cc1` the TGI [1] was > 15.3 µM, the TGI [2] was 25.7 µM and the TGI [3] was > 50 µM. It also gave a TGI [4] of 6.95 µM, a TGI [5] of 3.26 µM and a TGI [6] of 1.89 µM. For the same molecule, the TGI [7] was 5.26 µM, the TGI [8] was > 10 µM and the TGI [9] was > 39.3 µM. The TGI [10] was 0.287 µM.
